Laboratory results as given in US20260028365A1 (BIOGEN MA INC., priority 2022, published 2026).

What was measured:
JH2 domain of human Tyk2 = JH2 domain of human Tyk2 (Homo sapiens (Human), UniProt P29597); assay: JH2 Biochemical Assay (TR-FRET probe displacement); type: binding; settings: JH2 domain of human Tyk2, TR-FRET probe displacement
Tyk2 = Tyk2 (Homo sapiens (Human), UniProt P29597); assay: pSTAT4 Cell Assay (MSD, NK92 cells); type: cell-based; settings: MSD
JAK2 = JAK2 (Homo sapiens (Human), UniProt O60674); assay: pSTAT5 Cell Assay (MSD, TF1 cells); type: cell-based; settings: IL-3 stimulated, MSD
Sequence of JAK2 (O60674 whole entry): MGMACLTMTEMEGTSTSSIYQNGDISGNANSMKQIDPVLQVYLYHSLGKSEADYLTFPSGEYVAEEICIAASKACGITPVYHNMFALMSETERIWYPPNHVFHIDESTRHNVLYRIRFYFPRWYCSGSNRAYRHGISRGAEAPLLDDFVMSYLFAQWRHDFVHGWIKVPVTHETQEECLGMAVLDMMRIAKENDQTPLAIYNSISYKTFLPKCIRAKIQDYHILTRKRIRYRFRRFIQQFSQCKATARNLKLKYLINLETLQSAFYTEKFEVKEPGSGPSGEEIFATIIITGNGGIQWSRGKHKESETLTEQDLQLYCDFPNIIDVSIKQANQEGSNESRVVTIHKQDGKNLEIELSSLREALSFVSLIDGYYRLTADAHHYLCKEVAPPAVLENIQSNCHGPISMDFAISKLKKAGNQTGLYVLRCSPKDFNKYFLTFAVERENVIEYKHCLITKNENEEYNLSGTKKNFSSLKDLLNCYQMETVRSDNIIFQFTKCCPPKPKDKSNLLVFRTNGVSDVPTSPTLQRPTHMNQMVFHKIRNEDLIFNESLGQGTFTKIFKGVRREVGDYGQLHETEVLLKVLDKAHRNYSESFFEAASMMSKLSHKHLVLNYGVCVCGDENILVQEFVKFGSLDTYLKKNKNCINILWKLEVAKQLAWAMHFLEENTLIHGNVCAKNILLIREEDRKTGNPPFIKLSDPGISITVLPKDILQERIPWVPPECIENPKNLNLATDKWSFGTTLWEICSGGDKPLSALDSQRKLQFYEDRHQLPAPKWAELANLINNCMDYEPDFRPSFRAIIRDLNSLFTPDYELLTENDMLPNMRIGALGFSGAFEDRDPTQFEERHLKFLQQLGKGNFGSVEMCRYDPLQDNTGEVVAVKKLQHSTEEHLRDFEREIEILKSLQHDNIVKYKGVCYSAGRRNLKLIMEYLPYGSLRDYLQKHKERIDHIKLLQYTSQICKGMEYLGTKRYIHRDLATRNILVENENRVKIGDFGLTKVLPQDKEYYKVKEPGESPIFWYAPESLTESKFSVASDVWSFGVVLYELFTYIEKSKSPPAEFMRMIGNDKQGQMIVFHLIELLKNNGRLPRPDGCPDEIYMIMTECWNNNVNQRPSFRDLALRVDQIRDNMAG
Method in brief: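 Serum-starved TF1 cells were pretreated with compound for 1 h (10-point four-fold series from 10 μM), then stimulated with 30 ng/mL IL-3 for 15 min. pSTAT5 in lysates was measured by MSD immunoassay. IC50 came from a 4-parameter logistic fit.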

JAK1 = JAK1 (Homo sapiens (Human), UniProt P23458); assay: pSTAT3 Cell Assay (MSD, TF1 cells); type: cell-based; settings: IL-6 stimulated, MSD
Sequence of JAK1 (P23458 whole entry): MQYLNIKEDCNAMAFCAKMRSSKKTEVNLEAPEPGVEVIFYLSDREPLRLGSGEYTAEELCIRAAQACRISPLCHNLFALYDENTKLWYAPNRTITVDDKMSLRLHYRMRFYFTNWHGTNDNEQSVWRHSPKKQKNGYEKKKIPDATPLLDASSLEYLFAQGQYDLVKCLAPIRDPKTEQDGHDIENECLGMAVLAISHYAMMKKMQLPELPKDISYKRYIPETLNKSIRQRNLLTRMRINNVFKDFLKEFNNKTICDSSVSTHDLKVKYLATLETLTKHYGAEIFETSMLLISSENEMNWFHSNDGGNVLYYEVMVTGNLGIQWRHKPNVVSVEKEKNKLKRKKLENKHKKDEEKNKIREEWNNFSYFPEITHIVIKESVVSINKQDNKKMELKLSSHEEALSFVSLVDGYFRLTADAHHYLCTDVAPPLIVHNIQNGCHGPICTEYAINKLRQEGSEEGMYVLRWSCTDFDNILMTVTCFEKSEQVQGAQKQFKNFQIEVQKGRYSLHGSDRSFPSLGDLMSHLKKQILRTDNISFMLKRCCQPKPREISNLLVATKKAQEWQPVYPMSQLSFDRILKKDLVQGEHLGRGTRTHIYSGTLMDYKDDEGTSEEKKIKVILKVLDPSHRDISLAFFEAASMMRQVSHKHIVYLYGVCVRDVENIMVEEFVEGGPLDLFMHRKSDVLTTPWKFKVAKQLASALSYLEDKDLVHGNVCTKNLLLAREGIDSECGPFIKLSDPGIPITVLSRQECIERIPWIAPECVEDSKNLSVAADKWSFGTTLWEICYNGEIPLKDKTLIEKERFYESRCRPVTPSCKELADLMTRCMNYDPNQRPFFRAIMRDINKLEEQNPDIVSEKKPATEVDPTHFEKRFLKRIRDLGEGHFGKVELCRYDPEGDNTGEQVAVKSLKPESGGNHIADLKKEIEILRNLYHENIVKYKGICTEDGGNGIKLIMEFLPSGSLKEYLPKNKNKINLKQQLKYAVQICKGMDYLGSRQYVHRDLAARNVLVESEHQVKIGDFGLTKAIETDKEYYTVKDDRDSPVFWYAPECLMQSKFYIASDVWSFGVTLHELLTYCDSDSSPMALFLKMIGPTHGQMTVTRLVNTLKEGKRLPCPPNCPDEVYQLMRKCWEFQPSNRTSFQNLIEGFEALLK
Method in brief: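 Serum-starved TF1 cells with endogenous JAK1/STAT3 were pretreated 1 h with compound in a 10-point four-fold dilution series from 10 μM, then stimulated with 30 ng/mL IL-6 for 15 min. pSTAT3 in lysates was quantified by MSD immunoassay, and IC50 came from 4-parameter logistic fits.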

Sequence of JH2 domain of human Tyk2 (P29597 575-876): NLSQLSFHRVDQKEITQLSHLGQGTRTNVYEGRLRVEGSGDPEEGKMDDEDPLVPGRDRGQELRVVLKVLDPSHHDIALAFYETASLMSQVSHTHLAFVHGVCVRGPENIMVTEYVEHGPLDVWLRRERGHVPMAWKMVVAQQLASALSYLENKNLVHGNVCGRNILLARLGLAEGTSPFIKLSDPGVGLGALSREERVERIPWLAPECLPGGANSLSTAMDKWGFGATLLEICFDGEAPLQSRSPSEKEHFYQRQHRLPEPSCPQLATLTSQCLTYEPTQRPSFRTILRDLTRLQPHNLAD
Sequence of Tyk2 (P29597 whole entry): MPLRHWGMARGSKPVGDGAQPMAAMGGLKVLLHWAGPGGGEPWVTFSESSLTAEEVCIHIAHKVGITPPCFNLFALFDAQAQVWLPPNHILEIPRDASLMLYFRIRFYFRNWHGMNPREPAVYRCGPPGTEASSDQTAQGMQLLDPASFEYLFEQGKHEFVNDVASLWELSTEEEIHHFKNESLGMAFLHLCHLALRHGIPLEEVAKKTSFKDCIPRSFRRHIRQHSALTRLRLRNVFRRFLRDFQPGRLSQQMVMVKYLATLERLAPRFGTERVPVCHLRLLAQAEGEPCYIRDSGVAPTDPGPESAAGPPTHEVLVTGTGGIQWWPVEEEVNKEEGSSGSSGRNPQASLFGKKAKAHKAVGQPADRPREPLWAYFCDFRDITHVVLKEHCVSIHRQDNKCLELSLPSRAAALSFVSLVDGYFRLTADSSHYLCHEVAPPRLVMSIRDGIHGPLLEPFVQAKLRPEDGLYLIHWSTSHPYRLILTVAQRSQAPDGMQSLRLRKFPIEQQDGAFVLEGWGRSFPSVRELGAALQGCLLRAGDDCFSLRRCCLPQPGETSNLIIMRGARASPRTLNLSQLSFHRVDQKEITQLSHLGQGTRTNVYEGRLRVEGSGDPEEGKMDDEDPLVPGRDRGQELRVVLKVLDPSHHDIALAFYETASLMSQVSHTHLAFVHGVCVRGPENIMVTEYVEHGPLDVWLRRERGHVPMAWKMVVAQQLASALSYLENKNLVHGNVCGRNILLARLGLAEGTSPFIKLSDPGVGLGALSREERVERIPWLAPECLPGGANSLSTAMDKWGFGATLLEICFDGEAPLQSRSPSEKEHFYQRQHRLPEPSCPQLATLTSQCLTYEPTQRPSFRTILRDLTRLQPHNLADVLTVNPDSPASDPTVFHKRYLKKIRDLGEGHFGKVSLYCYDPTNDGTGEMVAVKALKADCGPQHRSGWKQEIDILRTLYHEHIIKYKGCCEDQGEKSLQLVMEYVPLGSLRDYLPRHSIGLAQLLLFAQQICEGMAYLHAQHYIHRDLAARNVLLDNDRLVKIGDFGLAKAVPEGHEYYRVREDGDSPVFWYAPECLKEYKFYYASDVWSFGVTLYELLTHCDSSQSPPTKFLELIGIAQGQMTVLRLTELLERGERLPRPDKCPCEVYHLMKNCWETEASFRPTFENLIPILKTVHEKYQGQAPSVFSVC

**Q.** `CCc1cc(Nc2cc(NC(C)=O)ncc2-c2coc(C)n2)nc(C(C)(F)F)n1` [Example 584, N-(4-((2-(1,1-difluoroethyl)-6-ethylpyrimidin-4-yl)amino)-5-(2-methyloxazol-4-yl)pyridin-2-yl)acetamide] was tested. Which IC50 (JH2 domain of human Tyk2) did it give?
**A.** Its IC50 is ≤ 10 nM.

**Q.** What about the IC50 (Tyk2) of the same compound?
**A.** Its IC50 is ≤ 10 nM.

**Q.** And the IC50 (JAK2)?
**A.** The IC50 was ≥ 1000 nM.

**Q.** What about the IC50 (JAK1) of the same compound?
**A.** Its IC50 is ≥ 1000 nM.

**Q.** Which IC50 (JH2 domain of human Tyk2) does the source give for `CC(=O)Nc1cc(Nc2cc(C)nc(C(C)(F)F)n2)c(-c2ccc(F)cn2)cn1` [Example 594, N-(4′-((2-(1,1-difluoroethyl)-6-methylpyrimidin-4-yl)amino)-5-fluorO[2,3′-bipyridin]-6′-yl)acetamide] here?
**A.** Its IC50 is ≤ 10 nM.

**Q.** And the IC50 (Tyk2)?
**A.** The IC50 was ≤ 10 nM.

**Q.** What about the IC50 (JAK2) of the same compound?
**A.** The IC50 was ≥ 1000 nM.

**Q.** What about the IC50 (JAK1) of the same compound?
**A.** The IC50 was ≥ 1000 nM.

**Q.** For `CC(=O)Nc1cc(Nc2cc(C)nc(C(C)(F)F)n2)c(-c2cocn2)cn1` [Example 596, N-(4-((2-(1,1-difluoroethyl)-6-methylpyrimidin-4-yl)amino)-5-(oxazol-4-yl)pyridin-2-yl)acetamide], which IC50 (JH2 domain of human Tyk2) is on record?
**A.** The IC50 was ≤ 10 nM.

**Q.** And the IC50 (Tyk2)?
**A.** The IC50 was ≤ 10 nM.

**Q.** And the IC50 (JAK2)?
**A.** Its IC50 is ≥ 1000 nM.

**Q.** What about the IC50 (JAK1) of the same compound?
**A.** The IC50 was ≥ 1000 nM.

**Q.** Which results are given for `CC(=O)Nc1cc(Nc2cc(C)nc(C(C)(F)F)n2)c(-c2cnc(F)cn2)cn1` [Example 598, N-(4-((2-(1,1-difluoroethyl)-6-methylpyrimidin-4-yl)amino)-5-(5-fluoropyrazin-2-yl)pyridin-2-yl)acetamide]?
**A.** IC50 (JH2 domain of human Tyk2): ≤ 10 nM; IC50 (Tyk2): 10 to 100 nM; IC50 (JAK2): ≥ 1000 nM; IC50 (JAK1): ≥ 1000 nM

**Q.** Which IC50 (JH2 domain of human Tyk2) does the source give for `CC(=O)Nc1cc(Nc2cc(C)nc(C(C)(F)F)n2)c(-c2ccn(C3CC3)n2)cn1` [Example 602, N-(5-(1-cyclopropyl-1H-pyrazol-3-yl)-4-((2-(1,1-difluoroethyl)-6-methylpyrimidin-4-yl)amino)pyridin-2-yl)acetamide] here?
**A.** The IC50 was ≤ 10 nM.

**Q.** And the IC50 (Tyk2)?
**A.** Its IC50 is ≤ 10 nM.

**Q.** And the IC50 (JAK2)?
**A.** Its IC50 is ≥ 1000 nM.

**Q.** And the IC50 (JAK1)?
**A.** The IC50 was ≥ 1000 nM.

**Q.** Which IC50 (JH2 domain of human Tyk2) does the source give for `CC(=O)Nc1cc(Nc2cc(C)nc(C(C)(F)F)n2)c(-c2cnccn2)cn1` [Example 620, N-(4-((2-(1,1-difluoroethyl)-6-methylpyrimidin-4-yl)amino)-5-(pyrazin-2-yl)pyridin-2-yl)acetamide] here?
**A.** The IC50 was ≤ 10 nM.

**Q.** What about the IC50 (Tyk2) of the same compound?
**A.** Its IC50 is 10 to 100 nM.

**Q.** What about the IC50 (JAK2) of the same compound?
**A.** The IC50 was ≥ 1000 nM.

**Q.** And the IC50 (JAK1)?
**A.** The IC50 was ≥ 1000 nM.

**Q.** With `COCc1ccc(-c2cnc(NC(C)=O)cc2Nc2cc(C)nc(C(C)(F)F)n2)nc1` [Example 634, N-(4′-((2-(1,1-difluoroethyl)-6-methylpyrimidin-4-yl)amino)-5-(methoxymethyl)-[2,3′-bipyridin]-6′-yl)acetamide] as the compound, how does the IC50 (JH2 domain of human Tyk2) read?
**A.** The IC50 was ≤ 10 nM.

**Q.** And the IC50 (Tyk2)?
**A.** Its IC50 is ≤ 10 nM.

**Q.** What about the IC50 (JAK2) of the same compound?
**A.** The IC50 was ≥ 1000 nM.

**Q.** What about the IC50 (JAK1) of the same compound?
**A.** Its IC50 is ≥ 1000 nM.

**Q.** With `COCc1cccc(-c2cnc(NC(C)=O)cc2Nc2cc(C)nc(C(C)(F)F)n2)n1` [Example 636, N-(4′-((2-(1,1-difluoroethyl)-6-methylpyrimidin-4-yl)amino)-6-(methoxymethyl)-[2,3′-bipyridin]-6′-yl)acetamide] as the compound, how does the IC50 (JH2 domain of human Tyk2) read?
**A.** The IC50 was ≤ 10 nM.

**Q.** What about the IC50 (Tyk2) of the same compound?
**A.** The IC50 was ≤ 10 nM.

**Q.** And the IC50 (JAK2)?
**A.** The IC50 was ≥ 1000 nM.

**Q.** And the IC50 (JAK1)?
**A.** Its IC50 is ≥ 1000 nM.

**Q.** Which IC50 (JH2 domain of human Tyk2) does the source give for `CC(=O)Nc1cc(Nc2cc(C)nc(C(C)(F)F)n2)c(-c2ccc(CN(C)C)cn2)cn1` [Example 648, N-(4′-((2-(1,1-difluoroethyl)-6-methylpyrimidin-4-yl)amino)-5-((dimethylamino)methyl)-[2,3′-bipyridin]-6′-yl)acetamide] here?
**A.** Its IC50 is ≤ 10 nM.

**Q.** And the IC50 (Tyk2)?
**A.** Its IC50 is ≤ 10 nM.

**Q.** What about the IC50 (JAK2) of the same compound?
**A.** Its IC50 is ≥ 1000 nM.

**Q.** What about the IC50 (JAK1) of the same compound?
**A.** Its IC50 is ≥ 1000 nM.

**Q.** Which results are given for `CC(=O)Nc1cc(Nc2cc(C)nc(C(C)(F)F)n2)c(-c2ccc(N(C)C)cn2)cn1` [Example 652, N-(4′-((2-(1,1-difluoroethyl)-6-methylpyrimidin-4-yl)amino)-5-(dimethylamino)-[2,3′-bipyridin]-6′-yl)acetamide]?
**A.** IC50 (JH2 domain of human Tyk2): ≤ 10 nM; IC50 (Tyk2): ≤ 10 nM; IC50 (JAK2): ≥ 1000 nM; IC50 (JAK1): ≥ 1000 nM

**Q.** What does the source list for `CC(=O)Nc1cc(Nc2cc(C)nc(C(C)(F)F)n2)c(-c2ncc(C#N)cn2)cn1` [Example 655, N-(5-(5-cyanopyrimidin-2-yl)-4-((2-(1,1-difluoroethyl)-6-methylpyrimidin-4-yl)amino)pyridin-2-yl)acetamide]?
**A.** IC50 (JH2 domain of human Tyk2): ≤ 10 nM; IC50 (Tyk2): 10 to 100 nM; IC50 (JAK2): ≥ 1000 nM; IC50 (JAK1): ≥ 1000 nM
